From ChEMBL document CHEMBL1156873 (Bioorg Med Chem Lett, 2010)
pIC50: −log10 of the molar value. Calls of active or inactive are those of the source. The rule behind the calls is not given here.

What was measured:
[1] = target: Serine/threonine-protein kinase mTOR (Homo sapiens, UniProt P42345); assay: Inhibition of mTOR
LNCaP = assay: Cytotoxicity against human LNCAP cells; type: functional, cell-based
[2] = Half life in nude mouse microsomes; type: ADME, Microsome
[3] = Half life in human microsomes; type: ADME, Microsome
Mus musculus [4] = assay: Inhibition of mTOR in nude mouse bearing human MDA-MB-361 cells assessed as reduction of phosphorylated S6K (T389) level at 25 mg/kg, iv after 8 hrs; type: functional, organism-based; design: dose 25 mg/kg
Mus musculus [5] = assay: Inhibition of mTOR in nude mouse bearing human MDA-MB-361 cells assessed as reduction of phosphorylated AKT (S473) level at 25 mg/kg, iv after 8 hrs; type: functional, organism-based; design: dose 25 mg/kg
Mus musculus [6] = assay: Inhibition of mTOR in nude mouse bearing human MDA-MB-361 cells assessed as reduction of phosphorylated S6 (S240/244) level at 25 mg/kg, iv after 8 hrs; type: functional, organism-based; design: dose 25 mg/kg
MDA-MB-361 [7] = assay: Antitumor activity against human MDA-MB-361 cells xenografted in nude mouse assessed as inhibition of tumor growth at 10 mg/kg, po daily once for 5 days measured up to 17 days; type: functional, organism-based; design: dose 10 mg/kg
MDA-MB-361 [8] = assay: Antitumor activity against human MDA-MB-361 cells xenografted in nude mouse assessed as inhibition of tumor growth at 20 mg/kg, po daily once for 5 days measured up to 17 days; type: functional, organism-based; design: dose 20 mg/kg
Mus musculus [9] = assay: Toxicity in nude mouse assessed as body weight change at 10 mg/kg, po daily once for 5 days; type: organism-based; design: dose 10 mg/kg, route oral; conditions: in vivo, 120 h
Mus musculus [10] = assay: Toxicity in nude mouse assessed as body weight change at 20 mg/kg, po daily once for 5 days; type: organism-based; design: dose 20 mg/kg, route oral; conditions: in vivo, 120 h

| SMILES | pIC50 [1] | pIC50 (LNCaP) | half-life [2] [min] | half-life [3] [min] | further results |
| --- | --- | --- | --- | --- | --- |
| CNC(=O)Nc1ccc(-c2nc(N3CC4CCC(C3)O4)c3cnn([C@H]4CC[C@H](O)CC4)c3n2)cc1 | 9.62 | 7.70 | > 30 | > 30 |  |
| CNC(=O)Nc1ccc(-c2nc(N3CC4CCC(C3)O4)c3cnn(C4CCC5(CC4)OCCCO5)c3n2)cc1 |  | 8.10 | > 30 | > 30 |  |
| O=C(Nc1ccc(-c2nc(N3CC4CCC(C3)O4)c3cnn(C4CCC5(CC4)OCCO5)c3n2)cc1)NC1CC1 |  | 8.70 | 25 | 9 |  |
| CNC(=O)Nc1ccc(-c2nc(N3CC4CCC(C3)O4)c3cnn([C@H]4CC[C@@H](OC)CC4)c3n2)cc1 |  | 9.00 | 17 |  |  |
| CNC(=O)Nc1ccc(-c2nc(N3CC4CCC(C3)O4)c3cnn(C(C)C)c3n2)cc1 | 9.92 | 8.30 | > 30 | 12 |  |
| CCn1ncc2c(N3CC4CCC(C3)O4)nc(-c3ccc(NC(=O)NC)cc3)nc21 | 9.13 | 7.15 | > 30 |  |  |
| O=C(Nc1ccc(-c2nc(N3CC4CCC(C3)O4)c3cnn(C4CCC5(CC4)OCCO5)c3n2)cc1)Nc1cccnc1 | 9.92 | 9.00 | > 30 | 13 |  |
| CNC(=O)Nc1ccc(-c2nc(N3CC4CCC(C3)O4)c3cnn(C)c3n2)cc1 | 8.87 | 6.77 | > 30 |  |  |
| CNC(=O)Nc1ccc(-c2nc(N3CC4CCC(C3)O4)c3cnn([C@H]4CC[C@H](OC)CC4)c3n2)cc1 | 9.42 | 8.70 | > 30 | 15 |  |
| CNC(=O)Nc1ccc(-c2nc(N3CC4CCC(C3)O4)c3cnn(C4CCN(C(=O)OC(C)(C)C)CC4)c3n2)cc1 | 9.59 | 7.57 | 11 |  |  |
| CNC(=O)Nc1ccc(-c2nc(N3CC4CCC(C3)O4)c3cnn(CC(F)(F)F)c3n2)cc1 |  | 7.42 | > 30 | 5 |  |
| O=C(NCCF)Nc1ccc(-c2nc(N3CC4CCC(C3)O4)c3cnn(C4CCC5(CC4)OCCO5)c3n2)cc1 | 9.66 | 9.00 | > 30 | 16 |  |
| O=C(Nc1ccncc1)Nc1ccc(-c2nc(N3CC4CCC(C3)O4)c3cnn(C4CCC5(CC4)OCCO5)c3n2)cc1 | 9.92 | 9.00 | > 30 | 13 |  |
| CCNC(=O)Nc1ccc(-c2nc(N3CC4CCC(C3)O4)c3cnn(C4CCC5(CC4)OCCO5)c3n2)cc1 |  | 9.00 | 27 | 10 |  |
| CNC(=O)Nc1ccc(-c2nc(N3CC4CCC(C3)O4)c3cnn(C4CCN(C(=O)OC(C)C)CC4)c3n2)cc1 | 9.72 | 8.22 | 21 |  |  |
| CNC(=O)Nc1ccc(-c2nc(N3CC4CCC(C3)O4)c3cnn(CCO)c3n2)cc1 |  | 6.19 |  |  |  |
| O=C(Nc1ccccc1)Nc1ccc(-c2nc(N3CC4CCC(C3)O4)c3cnn(C4CCC5(CC4)OCCO5)c3n2)cc1 | 9.80 | 8.40 | > 30 | 13 |  |
| CNC(=O)Nc1ccc(-c2nc(N3CC4CCC(C3)O4)c3cnn(C4CCC5(CC4)OCCO5)c3n2)cc1 |  | 8.70 | > 30 | 26 | Activity (Mus musculus [4]): Active; Activity (Mus musculus [5]): Active; Activity (Mus musculus [6]): Active; Activity (MDA-MB-361 [7]): Active; Activity (MDA-MB-361 [8]): Active; Activity (Mus musculus [9]): Non-toxic; Activity (Mus musculus [10]): Non-toxic |
| CNC(=O)Nc1ccc(-c2nc(N3CC4CCC(C3)O4)c3cnn(C4CCC(=O)CC4)c3n2)cc1 |  | 7.49 | 20 | 10 |  |
| CNC(=O)Nc1ccc(-c2nc(N3CC4CCC(C3)O4)c3cnn(C4CCN(C(=O)OC)CC4)c3n2)cc1 |  | 7.59 | > 30 |  |  |
| CNC(=O)Nc1ccc(-c2nc(N3CC4CCC(C3)O4)c3cnn(CCN(C)C)c3n2)cc1 |  | 6.40 | 5 |  |  |
| CNC(=O)Nc1ccc(-c2nc(N3CC4CCC(C3)O4)c3cnn(C4CCC(OC)(OC)CC4)c3n2)cc1 |  | 8.70 | 15 | 30 |  |
| CNC(=O)Nc1ccc(-c2nc(N3CC4CCC(C3)O4)c3cnn([C@H]4CC[C@@H](O)CC4)c3n2)cc1 | 9.52 | 7.70 | > 30 | > 30 |  |
